# Assay results as given in patent publication US20250195576A1, “METHOD TO GENERATE MORE EFFICIENT CAR-T CELLS” (INSTITUT NATIONAL DE LA SANTÉ ET DE LA RECHERCHE MÉDICALE, priority 2022, published 2025).
# Tests used:
# [1] = system: ERK and AKT signaling proteins; experiment: Western blot of ERK and AKT phosphorylation upon TCR stimulation; type: cell-based, human; conditions: after TCR stimulation, including at steady state; data not shown
# Experimental: Western blot analysis. Protein expression levels were analyzed by Western blot as described (Froehlich et al. 2016). Blotting with primary was followed by goat-anti-mouse- or goat-anti-rabbit-HRP (Jackson ImmunoReseach) incubation and ECL revelation (GE Healthcare, #RPN2106).
# [2] = system: Human primary T lymphocytes; experiment: Viability assay (propidium iodide); type: cell-based; conditions: in vitro culture
# Experimental: PBT were treated with AS1842856 (500 nM) or vehicle only. Every seven days, some cells from the two conditions were collected and labeled with Propidium Iodide (PI). […] Significance was assessed using 2-way Anova test.
# Viability assay. Cells were collected and propidium iodide was added (10 μg/ml, Invitrogen). Samples were run on FACSCalibur (Becton Dickinson) and analyzed using FlowJo software.
# [3] = system: Human primary T lymphocytes; experiment: In vitro proliferation assay (CFSE dilution, anti-CD3/CD28 beads); type: cell-based; conditions: data not shown
# Experimental: Proliferation assay. In vitro proliferation assay of primary T cells was assessed by dilution of Cell Trace Fluorescent Green kit (CFSE, Invitrogen, cat #C34554). After two washes in RPMI 1640 GlutaMAX medium, cells were resuspended at 4×10^6 cells per ml in a 5 μM Cell Trace Fluorescent Green solution. Cells were incubated in dark at 37° C. for 20 minutes. After the loading, cells were washed with a volume of hot RPMI medium supplemented with 10% Human AB serum, penicillin and streptomycin (50U/ml and 50 μg/m respectively) corresponding to 5 times the loading volume. Cell suspension was collected and dispensed into 96-wells round-bottom plates (2×10^5 cells per well) and stimulated using anti-CD3/CD28 coated-beads Dynabeads (Invitrogen, #11131D) for 3 days. Samples were run on BD LSR Fortessa and analyzed using FlowJo software. For in vivo proliferation assay, T^AS cells were labeled by dilution of CFSE as for in vitro proliferation assay described above. Then 10^7 CFSE^+ cells per immunodificient NSG mouse (NOD.Cg-Prkde^scid I12rg^tm1WjI/SzJ mouse, cat #JAX: 005557, Charles River) resuspended in 100 μL PBS supplemented by 10% FBS were intravenously injected in the retro-orbital vein. 5, 9 or 12 days after injection, spleens were collected to be minced and meshed on the top of a 40 μm cell strainer (Thermo Fisher, #22363547). […] Data were analyzed using FlowJo software.
# [4] = system: Human primary T lymphocytes; experiment: Granzyme B expression by intracellular flow cytometry; type: cell-based
# Experimental: (§1) FIGS. 1A to 1C: FOXO1 inhibition allows increase number of cytotoxic T cells and increased their activity. Human primary T lymphocytes from healthy donor (PBT) were treated with AS1842856 (500 nM) or equivalent of DMSO for 7 days. (1A) Cells were surface labeled with anti-CD4 and anti-CD8, next fixed and permeabilized before labeled with antibodies against Granzyme B. The graphs present the values correspond to the mean±SEM obtained with three independent donors. Significance was assessed using a paired Student t-test. (1B) At the end of the culture, cells were stimulated by PMA and ionomycin during three hours. After CD4 and CD8 labelling, intracellular detection of TNF-α was performed using an antibody against TNF-α. The values correspond to the mean±SEM obtained with three independent donors. Significance was assessed using a paired Student t-test. (1C) CD8 T cells from vehicle or treated cells were purified and co-cultured with P815 target cells pre-coated with anti-CD3 mAb, percentage of lysis was evaluated by 51Cr release assay at different effector: target ratios. The values correspond to the mean±SEM obtained with three independent donors. Significance was assessed using 2-way Anova test.
# Cells. […]
# (§2) Flow cytometry. […] After wash with PBS, cells were immediately analyzed by flow cytometry. […] After two washes, cells were run on BD LSRII (BD Biosciences) and analyzed using FlowJo software.
# [5] = system: Human primary T lymphocytes; experiment: T cell subsets and immune checkpoint expression by flow cytometry; type: cell-based
# Experimental: PBT were treated with 500 nM of AS1842856 or vehicle only for 7 days. (3A) Memory subsets composition in vehicle or AS1842856 CD4 (upper panel) and CD8 (lower panel) cells. TN are CD45RA+, CD27+, CD95−; TSCM are CD45RA+, CD27+, CD95+; TCM are CD45RA−, CD27+; TEM are CD45RA−, CD27− and Teff are CD45RA+, CD27−. The graphs show the mean percentage±SEM of the different subsets in vehicle or AS1842856 conditions on CD4 (upper panel) and CD8 (lower panel) T cells obtained with five independent donors. Significance was assessed using 1-way Anova test. (3B) CTLA-4, PD-1 and TIGIT expressions on CD4 (upper panel) and CD8 (lower panel) T cells were measured by FACS. The graphs show the MFI±SEM obtained with five independent donors. Significance was assessed using a paired Student t-test.
# (§3) Flow cytometry. Cells were washed and stained with antibodies diluted in PBS (Thermo Fisher Scientific; cat #10010001) supplemented with 0.1% BSA (Sigma-Aldrich, cat #A7030-500G) for 20 minutes at 4° C. After wash with PBS, cells were immediately analyzed by flow cytometry. For intracellular staining, cells were fixed with 4% paraformaldehyde (PFA) for 10 minutes at room temperature, permeabilized using a buffer containing 0.1% Saponin (Sigma-Aldrich, 84510) in PBS and stained after two PBS washes using antibodies diluted in the same saponin buffer for 30 minutes at 4° C. After two washes, cells were run on BD LSRII (BD Biosciences) and analyzed using FlowJo software.
# FOXO1 = experiment: CD62L expression by cytometry; type: cell-based, human
# Experimental: Cell transfection. Cells were transfected by nucleofection using the Human T Cell Nucleofector solution (Lonza, VPA-1002) and program U-014 of the Nucleofector AMAXA. For CRISPR, 2×10^6 cells were nucleofected with 75 pmol of Cas9 protein (Thermo Fisher, #A36499) and one RNA guide targeting the FOXO1 gene (Thermo Fisher, #sgRNACRISPR889854_SGM Foxo1) at a 1:1 molar ratio. To induce FOXO1 expression, 5×10^6 cells were transfected with 5 μg DNA of the pEGFP-FOXO1-T24A-S256A-S319A-H215R plasmid (Nagashima et al., 2010) or pEGFP-N1 (clontech) as control. Jurkat T cells (5×106 in RPMI 1640 medium) were electroporated at 260 V, 1000 μF in 4-mm polycarbonate cuvettes (Eurogentec) with 5 μg of the GFP, the triple mutant T24A/S256A/S319A FOX01-GFP (FOXO1-TM-GFP) or the FOXO1-TM-GFP DNA binding mutant plasmids (FOXO1-TM-H215R-GFP) (Fabre et al. 2008). Four hours later, AS1842856 was added or not in the culture. At 48 hours, CD62L expression was analyzed by cytometry.
# Flow cytometry. Cells were washed and stained with antibodies diluted in PBS (Thermo Fisher Scientific; cat #10010001) supplemented with 0.1% BSA (Sigma-Aldrich, cat #A7030-500G) for 20 minutes at 4° C. After wash with PBS, cells were immediately analyzed by flow cytometry. […] After two washes, cells were run on BD LSRII (BD Biosciences) and analyzed using FlowJo software.
# [6] = system: Human primary T lymphocytes; experiment: Chemokine receptor membrane expression by flow cytometry; type: cell-based; conditions: data not shown
# Experimental: as §3
# [7] = system: Human primary T lymphocytes; experiment: TNF-α intracellular labeling and cytokine secretion (MSD assay); type: cell-based
# Experimental: as §1, §2
# [8] = system: Human primary T lymphocytes; experiment: Calcium measurements upon TCR stimulation; type: cell-based; conditions: compared to untreated cells; data not shown
# Experimental: Calcium Measurements. T cells were incubated for 20 minutes at 37° C. with 1.5 μM Fura-2/AM (Molecular Probes, F1225). Experiments were performed at 37° C. in mammalian saline buffer (140 mM NaCl, 5 mM KCl, 1 mM CaCl2, 1 mM MgCl2, 20 mM HEPES, 11 mM glucose). Calcium measurements by spectrofluorimetry were performed as previously described (Conche et al. 2009) with a Cary Eclipse spectrofluorimeter (Varian) (excitation: 340 and 380 nm; emission: 510 nm).
smiles,measurement,setting,value
CCn1cc(C(=O)O)c(=O)c2c(N)c(F)c(NC3CCCCC3)cc21 [AS1842856],Phosphorylation of AKT,[1],hypophosphorylation
same,Phosphorylation of ERK,[1],hyperphosphorylation
same,T cell viability,[2],promotes
same,Toxicity on T cells,[2],no toxicity
same,CFSE dilution peaks,[3]; after 60h of stimulation,greater number of CFSE dilution peaks
same,Time to proliferation after stimulation,"[3]; anti-CD3/CD28 beads, CFSE",40 h
same,Granzyme B expression in CD8 subset,"[4]; AS1842856 500 nM, 7 days, CD8 T cells",upregulated
same,Increase of granzyme B expression,"[4]; same conditions as Foxo1 invalidation by CRISPR, data not shown",more than two-fold increase
same,CTLA-4 expression,[5],no significant modification
same,"Markers of Th1 (T-bet+), Th2 (GATA3+) and Treg (FOXP3+) subsets","[5]; CD4 subsets, data not shown",no significant changes
same,Cells expressing PD1,[5]; after AS1842856 treatment,no more than 10%
same,Naive subset (CD45RA+/CD27+/CD95−),[5]; both CD4 and CD8 T cells,sharp decrease
same,TSCM subset (CD45RA+/CD27+/CD95+),[5]; both CD4 and CD8 T cells,strong increase
same,PD1 expression,[5]; both CD8+ and CD4+ cells,small but significant increase
same,CD8 expression,[5]; data not shown,decreased expression
same,"Tfh (CXCR5+, BcL-6+) subset",[5]; data not shown,slight increase
same,TIGIT expression,[5]; reaching significance only in CD8+ T cells,consistent increase
same,CD62L expression in Jurkat T cells with FOXO1 H215R mutant,"FOXO1; Jurkat T cell line transfected with FOXO1 H215R mutant, 48 hours, data not shown",could not be further decreased
same,CD62L expression,FOXO1; primary T cells,decrease
same,CCR4 membrane expression,[6],increase
same,CCR6 membrane expression,[6],increase
same,CX3CR1 membrane expression,[6],increase
same,CXCR4 membrane expression,[6],significant decrease
same,"TNF-α expression (percentage of cells, intracellular labeling)","[7]; 500 nM 7 days, then PMA and ionomycin three hours",significantly increased
same,TNF-α secreted in supernatant (MSD assay),[7]; data not shown,confirmed
same,Calcium influx induced upon TCR stimulation,[8],less rapid and of a lower magnitude
